Measured values from PubChem BioAssay (NCI).
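Results reflect a 48-hour exposure of cells in 96-well plates to compound at five concentrations. GI50 = concentration required for 50% inhibition of growth. TGI marks complete inhibition of growth.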

Experiments:
Assay in all cases: NCI anticancer screen, dose series, 48 h
A549 NSCLC = tested on: A549 NSCLC
ACHN renal = tested on: ACHN renal
CAKI-1 renal = tested on: CAKI-1 renal
CCRF-CEM leukemia = tested on: CCRF-CEM leukemia
HS 578T breast = tested on: HS 578T breast
MDA-MB-435 = tested on: MDA-MB-435
NCI/ADR-RES ovarian = tested on: NCI/ADR-RES ovarian
OVCAR-3 ovarian = tested on: OVCAR-3 ovarian
SF-268 CNS = tested on: SF-268 CNS
SN12C renal = tested on: SN12C renal

O=c1[nH]c(=O)n(C2CC(O)C(CO)O2)cc1CO (stereo not given)
GI50 (A549 NSCLC): > 100 µM | TGI (A549 NSCLC): > 100 µM | GI50 (ACHN renal): > 100 µM | TGI (ACHN renal): > 100 µM | GI50 (CAKI-1 renal): > 100 µM | TGI (CAKI-1 renal): > 100 µM | GI50 (CCRF-CEM leukemia): > 100 µM | TGI (CCRF-CEM leukemia): > 100 µM | GI50 (HS 578T breast): > 100 µM | TGI (HS 578T breast): > 100 µM | GI50 (MDA-MB-435): > 100 µM | TGI (MDA-MB-435): > 100 µM | GI50 (NCI/ADR-RES ovarian): > 100 µM | TGI (NCI/ADR-RES ovarian): > 100 µM | GI50 (OVCAR-3 ovarian): > 100 µM | TGI (OVCAR-3 ovarian): > 100 µM | GI50 (SF-268 CNS): > 100 µM | TGI (SF-268 CNS): > 100 µM | GI50 (SN12C renal): 91.7 µM | TGI (SN12C renal): > 100 µM

CCOC(=O)C(C)(C)Oc1ccc2c(C)c(-c3ccc(Cl)cc3)c(=O)oc2c1
TGI (A549 NSCLC): > 100 µM | TGI (ACHN renal): > 100 µM | TGI (CCRF-CEM leukemia): > 100 µM | TGI (OVCAR-3 ovarian): > 100 µM | TGI (SF-268 CNS): > 100 µM | TGI (SN12C renal): > 100 µM

O=C(N/N=C1/C(=O)N(c2ccc(Cl)cc2Cl)C(=O)C(=O)C1c1nc2ccccc2o1)c1ccccc1O (stereo not given)
TGI (A549 NSCLC): > 100 µM | TGI (ACHN renal): > 100 µM | TGI (CAKI-1 renal): > 100 µM | TGI (CCRF-CEM leukemia): > 100 µM | TGI (OVCAR-3 ovarian): 52.4 µM | TGI (SF-268 CNS): > 100 µM | TGI (SN12C renal): > 100 µM

O=C1[C@@H]2C3c4ccccc4C([C@@H]2C(=O)N1c1ccccc1)S3(=O)=O
TGI (ACHN renal): > 100 µM | TGI (CCRF-CEM leukemia): > 100 µM | TGI (OVCAR-3 ovarian): > 100 µM | TGI (SF-268 CNS): > 100 µM | TGI (SN12C renal): > 100 µM

c1ccc(SC2CCSc3ccccc3C2Sc2ccccc2)cc1 (stereo not given)
TGI (A549 NSCLC): > 100 µM | TGI (ACHN renal): > 100 µM | TGI (CAKI-1 renal): 85 µM | TGI (CCRF-CEM leukemia): > 100 µM | TGI (OVCAR-3 ovarian): > 100 µM | TGI (SF-268 CNS): > 100 µM | TGI (SN12C renal): > 100 µM

O=c1cc(-c2ccccc2)[nH]c2c(S)cccc12
TGI (A549 NSCLC): > 100 µM | TGI (ACHN renal): > 100 µM | TGI (CCRF-CEM leukemia): > 100 µM | TGI (HS 578T breast): > 100 µM | TGI (MDA-MB-435): > 100 µM | TGI (NCI/ADR-RES ovarian): > 100 µM | TGI (OVCAR-3 ovarian): > 100 µM | TGI (SF-268 CNS): > 100 µM | TGI (SN12C renal): > 100 µM

CC(=C\c1ccccc1)/C=C(\C#N)C(N)=O
TGI (ACHN renal): > 10 µM | TGI (CAKI-1 renal): > 10 µM | TGI (HS 578T breast): > 10 µM | TGI (MDA-MB-435): > 10 µM | TGI (NCI/ADR-RES ovarian): > 10 µM | TGI (OVCAR-3 ovarian): > 10 µM | TGI (SF-268 CNS): > 10 µM | TGI (SN12C renal): > 10 µM

CCOC(=O)NC(=O)c1cn(CCOC(=O)NCCCCCCNC(=O)OCCn2cc(C(=O)NC(=O)OCC)c(=O)[nH]c2=O)c(=O)[nH]c1=O
TGI (A549 NSCLC): > 100 µM | TGI (ACHN renal): > 100 µM | TGI (CAKI-1 renal): > 100 µM | TGI (CCRF-CEM leukemia): > 100 µM | TGI (OVCAR-3 ovarian): > 100 µM | TGI (SF-268 CNS): > 100 µM | TGI (SN12C renal): > 100 µM

O=c1[nH]cc(COCCO)c(=O)[nH]1
TGI (A549 NSCLC): > 100 µM | TGI (ACHN renal): > 100 µM | TGI (CAKI-1 renal): > 100 µM | TGI (CCRF-CEM leukemia): > 100 µM | TGI (OVCAR-3 ovarian): > 100 µM | TGI (SF-268 CNS): > 100 µM | TGI (SN12C renal): > 100 µM

O=C(CSc1nnc(-c2ccc(N=Cc3ccc(Cl)cc3)cc2)o1)Nc1ccc(Cl)cc1
TGI (A549 NSCLC): > 100 µM | TGI (ACHN renal): > 100 µM | TGI (CCRF-CEM leukemia): > 100 µM | TGI (SF-268 CNS): > 100 µM | TGI (SN12C renal): > 100 µM

CC(=O)O[C@H]1CCC2[C@@H]3CCC4=C(O)c5nocc5C[C@]4(C)C3CC[C@@]21C (stereo not given in full)
TGI (A549 NSCLC): > 100 µM | TGI (ACHN renal): > 100 µM | TGI (CAKI-1 renal): > 100 µM | TGI (CCRF-CEM leukemia): > 100 µM | TGI (OVCAR-3 ovarian): > 100 µM | TGI (SF-268 CNS): > 100 µM | TGI (SN12C renal): > 100 µM

Cc1ccc(Cn2c(C)nc3c2C(=O)c2ccccc2C3=O)cc1
TGI (A549 NSCLC): 34.9 µM | TGI (ACHN renal): 38.9 µM | TGI (CCRF-CEM leukemia): > 100 µM | TGI (OVCAR-3 ovarian): 36.6 µM | TGI (SF-268 CNS): 36.9 µM | TGI (SN12C renal): > 100 µM

O=C(NCCCCN=c1cccccc1NCCCCNC(=O)OCc1ccccc1)OCc1ccccc1
TGI (A549 NSCLC): 74.6 µM | TGI (ACHN renal): 59.5 µM | TGI (CAKI-1 renal): 37.9 µM | TGI (CCRF-CEM leukemia): 47.8 µM | TGI (OVCAR-3 ovarian): 29.5 µM | TGI (SF-268 CNS): 63.8 µM | TGI (SN12C renal): 51.6 µM

O=C(c1ccc(Cl)cc1)c1cnc(Nc2ccccc2Cl)s1
TGI (A549 NSCLC): 60.3 µM | TGI (ACHN renal): 35.3 µM | TGI (CAKI-1 renal): 40 µM | TGI (CCRF-CEM leukemia): > 100 µM | TGI (HS 578T breast): 68.8 µM | TGI (MDA-MB-435): > 100 µM | TGI (OVCAR-3 ovarian): 40.9 µM | TGI (SF-268 CNS): 57.6 µM | TGI (SN12C renal): 52.1 µM

CC1(C)OCCn2c1nc1c(N3CCOCC3)nc(-c3cnc(N)nc3)nc12
GI50 (A549 NSCLC): 0.283 µM | TGI (A549 NSCLC): 4.4 µM | GI50 (ACHN renal): 0.274 µM | TGI (ACHN renal): > 100 µM | GI50 (CCRF-CEM leukemia): 1.06 µM | TGI (CCRF-CEM leukemia): > 100 µM | GI50 (HS 578T breast): 0.135 µM | TGI (HS 578T breast): 0.981 µM | GI50 (MDA-MB-435): 0.27 µM | GI50 (NCI/ADR-RES ovarian): 0.508 µM | TGI (NCI/ADR-RES ovarian): > 100 µM | GI50 (OVCAR-3 ovarian): 0.308 µM | TGI (OVCAR-3 ovarian): > 31.5 µM | GI50 (SF-268 CNS): 0.426 µM | TGI (SF-268 CNS): > 100 µM | GI50 (SN12C renal): 0.301 µM | TGI (SN12C renal): > 48.3 µM

COc1ccc(/C(=N\NC(=O)C(N)=O)C(c2ccc(OC)cc2)C2(O)C(=O)Nc3c(Cl)cccc32)cc1 (stereo not given)
TGI (A549 NSCLC): > 100 µM | TGI (ACHN renal): > 100 µM | TGI (CCRF-CEM leukemia): > 100 µM | TGI (OVCAR-3 ovarian): > 100 µM | TGI (SF-268 CNS): > 100 µM | TGI (SN12C renal): > 100 µM

CCC1C2C=CC(CC2)N1S(=O)(=O)c1ccc(C)cc1 (stereo not given)
TGI (A549 NSCLC): > 100 µM | TGI (ACHN renal): > 100 µM | TGI (CAKI-1 renal): > 100 µM | TGI (CCRF-CEM leukemia): > 100 µM | TGI (OVCAR-3 ovarian): > 100 µM | TGI (SF-268 CNS): 67.3 µM | TGI (SN12C renal): 36.6 µM

O=C(NC(=O)c1cn(CCNCCO)c(=O)[nH]c1=O)OCc1ccccc1
TGI (A549 NSCLC): > 100 µM | TGI (ACHN renal): > 100 µM | TGI (CAKI-1 renal): > 100 µM | TGI (CCRF-CEM leukemia): > 100 µM | TGI (OVCAR-3 ovarian): > 100 µM | TGI (SF-268 CNS): > 100 µM | TGI (SN12C renal): > 100 µM

COC1C(O)=C2C(=O)O/C(C)=C/C=C/C=C/C=C\CC(c3ccccc3)NC(=O)\C=C/C=C\C=C\C=C\[C@@]2(C)[C@@H]1O (stereo not given in full)
TGI (A549 NSCLC): 0.0445 µM | TGI (ACHN renal): 0.122 µM | TGI (CAKI-1 renal): 0.0582 µM | TGI (CCRF-CEM leukemia): 0.0577 µM | TGI (HS 578T breast): 0.0395 µM | TGI (MDA-MB-435): 0.044 µM | TGI (OVCAR-3 ovarian): 0.271 µM | TGI (SF-268 CNS): 0.318 µM | TGI (SN12C renal): 0.538 µM

CN(C)c1c([O-])c(=[N+](C)C)c1=O
TGI (A549 NSCLC): > 100 µM | TGI (ACHN renal): > 100 µM | TGI (CAKI-1 renal): > 100 µM | TGI (CCRF-CEM leukemia): > 100 µM | TGI (OVCAR-3 ovarian): > 100 µM | TGI (SF-268 CNS): > 100 µM | TGI (SN12C renal): > 100 µM

COc1ccc(NC(=O)/C(N=O)=C(/C)O)cc1
TGI (A549 NSCLC): > 100 µM | TGI (ACHN renal): > 100 µM | TGI (CAKI-1 renal): > 100 µM | TGI (CCRF-CEM leukemia): > 100 µM | TGI (SF-268 CNS): > 100 µM | TGI (SN12C renal): > 100 µM

CCN1CCN=c2c3cc(OC)ccc3n3cnc4ccc1c2c43
TGI (A549 NSCLC): 0.67 µM | TGI (ACHN renal): 0.792 µM | TGI (CCRF-CEM leukemia): 0.747 µM | TGI (HS 578T breast): 0.866 µM | TGI (MDA-MB-435): 1.31 µM | TGI (NCI/ADR-RES ovarian): 0.489 µM | TGI (OVCAR-3 ovarian): 0.525 µM | TGI (SF-268 CNS): 4.69 µM | TGI (SN12C renal): 0.433 µM

CCCCCCC[CH2][Sn]1([CH2]CCCCCCC)[O]C(=O)c2cccnc2[S]1
GI50 (A549 NSCLC): > 100 µM | TGI (A549 NSCLC): > 100 µM | GI50 (ACHN renal): > 100 µM | TGI (ACHN renal): > 100 µM | GI50 (CAKI-1 renal): > 100 µM | TGI (CAKI-1 renal): > 100 µM | GI50 (CCRF-CEM leukemia): > 100 µM | TGI (CCRF-CEM leukemia): > 100 µM | GI50 (OVCAR-3 ovarian): > 100 µM | TGI (OVCAR-3 ovarian): > 100 µM | GI50 (SN12C renal): > 100 µM | TGI (SN12C renal): > 100 µM
